From patent US20080058373A1, “Compositions and Methods for Treating or Preventing Glaucoma or Progression Thereof” (priority 2006, published 2008)
Values joined by “and” are separate entries in the source; they are usually repeats but may differ in a detail not shown here. Equal values may be shown once. “Also recorded” adds a separate entry of the source.

Experiments:
[1] = system: rabbit eye (anterior chamber paracentesis); assay: Pupillary diameter measurement, rabbit paracentesis model; format: in vivo; details: 0.1% topical
Protocol: (§1) Each rabbit was placed in a restraint device and tagged with the alphanumeric code. The formulations were instilled (50 μl) into the conjunctival sac of both eyes 180, 120, 90 and 30 min before the first paracentesis; then 15, 30, 90 min after the first paracentesis. To perform the first paracentesis the animals were anaesthetized by intravenous injection of 5 mg/kg Zoletil® (Virbac; 2.5 mg/kg tiletamine HCl and 2.5 mg/kg zolazepam HCl) and one drop of local anesthetic (Novesina®, Novartis) was administered to the eye. Anterior chamber paracentesis was performed with a 26 G needle attached to a tuberculin syringe; the needle was introduced into the anterior chamber through the cornea, taking care not to damage the tissues. Two hours after the first paracentesis, the animals were sacrificed with 0.4 ml Tanax® (Intervet International B.V.) and the second paracentesis was performed. About 100 μl of aqueous humor were removed at the second paracentesis. Aqueous humor was immediately split in four aliquots and stored at −80° C. until analysis. Then both eyes were enucleated and the iris-ciliary body was carefully excised, placed in polypropylene tubes, and stored at −80° C. until analysis.
The pupillary diameter of both eyes was measured with a Castroviejo caliper 180 min and 5 min before the first paracentesis and 5 min before the second paracentesis.

[2] = system: rabbit eye (anterior chamber paracentesis); assay: Clinical evaluation by slit lamp (clinical score), rabbit paracentesis model; format: in vivo; design: key to Clinical Score −180 min / Clinical Score −5 min / Clinical Score +115 min: 0=normal; 1=discrete dilatation of iris and conjunctival vessels; 2=moderate dilatation of iris and conjunctival vessels; 3=intense iridal hyperemia with flare in the anterior chamber; 4=intense iridal hyperemia with flare in the anterior chamber and presence of fibrinous exudates; details: 0.1% topical
protein in aqueous humor = assay: Protein measurement in aqueous humor, rabbit paracentesis model; format: in vivo; details: 0.1% topical
Protocol: as §1
For protein concentration determination in the aqueous humor we used the Protein Quantification Kit (Fluka; Cat.No. 77371; Lot.No. 1303129). Five microliters of aqueous humor were diluted to 100 μl with water. Twenty microliters of samples and of standards were load into a 96-well plate and recorded in a plate layout. Samples were treated following the assay procedure described in the kit. A microplate reader (GDV, Italy; model DV 990 B/V6) set at 670 nm was used for making the calibration and analyzing the samples.

Leukocytes (PMN) = Leukocytes (PMN) measurement in aqueous humor, rabbit paracentesis model; format: in vivo; details: 0.1% topical; second paracentesis; group mean
Protocol: as §1
For the determination of the number of leukocytes we used a haemocytometer (Improved Neubauer Chamber; Bright-line, Hausser Scientific) and a Polyvar 2 microscope (Reichert-Jung).

[3] = system: New Zealand White rabbits; assay: Mortality/morbidity in the rabbit IOP study; format: in vivo
Protocol: On Days 1-31, animals received daily topical doses of the appropriate test article into the right eye. Animals were dosed four times per day, with doses administered 2 hours apart. Doses were administered using a calibrated 50-μL pipette. The eyelids were held close for 10 seconds immediately following dosing. The time of each dose administration was recorded.
Animals determined to be moribund were euthanized with an intravenous injection of commercial euthanasia solution.

[4] = system: New Zealand White rabbits; assay: Ophthalmic observations (slit lamp, McDonald Shadduck system) in the rabbit IOP study; format: in vivo; design: key to Conjunctival congestion Score: A flushed, reddish color predominantly confined to the palpebral conjunctiva with some perilimbal injection but primarily confined to the lower and upper parts of the eye from the 4:00 to 7:00 and 11:00 to 1:00 positions; key to Ophthalmic Observation (Slit-Lamp): AN: Appeared normal; details: 0.1% 4 × daily, treated right eye
Protocol: Prior to placement on study, each animal underwent a pre-treatment ophthalmic examination (slit lamp and indirect ophthalmoscopy). Observations were scored according to the McDonald Shadduck system and recorded using a standardized data collection sheet.
Ophthalmic examinations (slit lamp) were performed prior to the first dosing on Days 5, 12, 22, 26, and 33. Ocular findings were scored according to the McDonald Shadduck system and recorded using a standardized data collection sheet.

[5] = system: primary human corneal epithelial cells; assay: IL-1β-stimulated cytokine production in primary HCECs (30-cytokine Luminex kit); details: 18 h, P<0.05
Protocol: Primary HCECs were seeded in 24-well plates. […] Each treatment was performed in triplicate. Media were collected and used for determination of cytokine content using a 30-cytokine Luminex kit. Cell viability was determined by alamarBlue assay (LP06013).
Median fluorescence intensity (MFI) was used to obtain the concentration of each cytokines in pg/ml based on the standard curve of each cytokine assayed by Luminex. The linear range of the standard curve for each cytokine was used for determination of cytokine concentration. Duplicate values for each sample were averaged. Data were expressed as mean±SD. Statistical analysis was performed using one-way ANOVA-Dunnett's test, and P<0.05 was considered statistically significant.

[6] = 5 min before the first paracentesis, single eyes, listed as Dex
[7] = 5 min before the second paracentesis, single eyes, listed as Dex
[8] = 0.1% (0.05 mg/dose) 4 × daily, Group A, individual rabbits
[9] = 10 ng/ml IL-1β-stimulated HCECs

C[C@@H]1C[C@H]2[C@@H]3CCC4=CC(=O)C=C[C@]4(C)[C@@]3(F)[C@@H](O)C[C@]2(C)[C@@]1(O)C(=O)CO [dexamethasone, reference compound]
Pupillary diameter T1: −180 min ([1]; 50 μl drops, −180 min (basal), single eyes, listed as Dex): 6.0 mm and 7.0 mm and 5.5 mm and 6.5 mm | Pupillary diameter T2: −5 min [1, 6]: 5.5 mm and 6.5 mm and 6.0 mm and 7.0 mm and 7.5 mm | Pupillary diameter T3: +115 min [1, 7]: 5.5 mm and 6.0 mm and 4.5 mm and 5.0 mm and 6.5 mm | Pupillary diameter Mean Δ(T3 − T1) ([1]; group mean, n=8 eyes): −0.8 mm | Clinical Score −5 min [2, 6]: 0 and 1 | Clinical Score +115 min [2, 7]: 1 and 3 | Percentage of eyes with clinical score 1 ([2]; +115 min, N=8 eyes): 75% | Percentage of eyes with clinical score 3 ([2]; +115 min, N=8 eyes): 25% | Percentage of eyes with clinical score 0 ([2]; −5 min, N=8 eyes): 75% | Percentage of eyes with clinical score 1 ([2]; −5 min, N=8 eyes): 25% | Percentage of eyes with clinical score 0 ([2]; −180 min (basal), N=8 eyes): 100% | Clinical Score −180 min ([2]; −180 min (basal), single eyes): 0 | Protein levels in aqueous humor (raw data) (protein in aqueous humor; samples collected at the second paracentesis, single eyes, listed as Dex): 31.31 mg/mL and 31.81 mg/mL and 35.95 mg/mL and 37.15 mg/mL and 32.12 mg/mL and 32.40 mg/mL | Protein levels in aqueous humor, Mean (protein in aqueous humor; second paracentesis, group mean): 33.457 mg/mL | PMN numbers in aqueous humor, Mean (Leukocytes (PMN)): 30.000 number/μl | Day of Death (day euthanized or found dead) [3, 8]: 25 (2×) and 27 (2×) and 23 and 13 | Recorded Notes (mortality) [3, 8]: Euthanized due to severe hemorrhagic diarrhea. Noted to be; also recorded: Euthanized. Very sick/poor health; left (untreated) eye; also recorded: Euthanized due to severe profuse hemorrhagic diarrhea; also recorded: Found dead. No rigor mortis present | Mortality (animals found dead or euthanized prior to study completion/number of animals in group) ([3]; 0.1%, 0.05 mg/dose, topical right eye 4 × daily, Day 33): 6/10^(3) | Conjunctival congestion Score ([4]; Day 5): 1 | Ophthalmic Observation (Slit-Lamp) ([4]; Day 5, 12): AN | Ophthalmic Observation (Slit-Lamp) ([4]; Day 5, 12, 22): AN | Ophthalmic Observation (Slit-Lamp) ([4]; Day 5, 12, 22, 26): AN | Ophthalmic Observation (Slit-Lamp) ([4]; Day 5, 12, 22, 26, 33): AN | Ophthalmic Observation (Slit-Lamp) ([4]; Day 5, 12, 26, 33): AN | Ophthalmic Observation (Slit-Lamp) ([4]; Day 12, 22, 26): AN | Conjunctival congestion Score ([4]; Day 22): 1 | Concentration at which a significant inhibitory effect was observed on IL-6 [5, 9]: 1 nM | Concentration at which a significant inhibitory effect was observed on MCP-1 [5, 9]: 10 nM | Concentration at which a significant inhibitory effect was observed on TGF-α [5, 9]: 10 nM | Concentration at which a significant inhibitory effect was observed on TNF-α [5, 9]: 10 nM | Concentration at which a significant inhibitory effect was observed on RANTES ([5]; IL-1β-stimulated HCECs): 1 µM
